{
  "source": "patent US9637451B2",
  "about": "“Indole compound” (ASTELLAS PHARMA INC., priority 2014, dated 2017)",
  "key": {"human MT1 receptor": {"molecular_target": "T1, human MT1 receptor (Homo sapiens, UniProt P48039)", "T1 construct": "expressed in transfected cells", "T1 sequence (P48039 whole entry)": "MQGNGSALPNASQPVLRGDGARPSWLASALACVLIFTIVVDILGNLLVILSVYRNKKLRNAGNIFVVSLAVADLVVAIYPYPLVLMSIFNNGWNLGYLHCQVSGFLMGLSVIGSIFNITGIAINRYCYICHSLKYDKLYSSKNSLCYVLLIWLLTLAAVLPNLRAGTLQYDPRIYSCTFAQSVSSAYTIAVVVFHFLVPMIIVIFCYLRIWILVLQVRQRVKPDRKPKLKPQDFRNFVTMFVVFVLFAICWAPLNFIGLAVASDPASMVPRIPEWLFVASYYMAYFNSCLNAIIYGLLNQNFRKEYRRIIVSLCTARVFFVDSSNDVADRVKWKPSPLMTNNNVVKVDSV", "assay": "Activation of human MT1 receptor in receptor-expressing cells, intracellular Ca2+ by FLIPR", "assay_type": "cell-based"}, "[1]": {"assay": "Brain-to-plasma concentration ratio in rat after intravenous administration", "assay_type": "in vivo", "conditions": "brain and plasma, 15 minutes after intravenous administration", "description": "At 15 minutes after intravenously administration of the test compound to the rats, the plasma and brain were collected. A 50% acetonitrile solution and an acetonitrile including internal standard material were added to the collected plasma. The collected brain was added to a 2-fold volume of PBS and homogenized. A 50% acetonitrile solution and an acetonitrile including internal standard material were added to the brain homogenate. The sample was centrifuged at 4° C. and 2150×g for 10 minutes, the supernatant was measured by LC-MS/MS, and the total concentration of the test compound in the brain (Cbrain) and the total concentration of the test compound in the plasma (Cplasma,t) were obtained. The brain-to-plasma concentrations ratio (Kp,brain) was calculated by the following equation.\nThe Kp,uu,CSF values and the Kp,brain values of ramelteon and some Example compounds of the present invention are shown in Table 4. Ex represents Example No. of the test compound. Unless otherwise specified, the Kp,uu,CSF was calculated using the fp values determined by an ultracentrifugation method. Further, N.T. represents Not Tested."}, "rat": {"test_system": "rat", "assay": "Measurement test of electroencephalogram in rat (sleep-awake cycle)", "assay_type": "in vivo", "conditions": "oral", "from_the_text": "After the completion of a quarantine period, the animals showing no abnormal health condition were subjected to an electroencephalogram electrode chronic implantation surgery with reference to brain atlas of Pellegrino (Plenum Press, New York (1979)), or the like. Under anesthesia with pentobarbital sodium, the rat was calibrated in a brain stereotaxic apparatus. In the frontal cortex, a monopolar silver ball electrode having a diameter of the tip of about 1 mm was placed on a hard film of the brain. Into the hippocampus, a laminated bipolar electrodes made of stainless steel was stuck. The reference electrode was screwed around the olfactory brain. Further, as for the electromyogram measurement, the lead wire was implanted in the both electrodes about 1 cm between the electrodes in the neck portion. The other end was exposed to the head portion subcutaneously. The electrodes and the lead wires were subjected to soldering with connector sockets and fixed to the skull with a dental resin or the like.\nThe rats were accommodated in a measurement cage under rat feeding and water supply on the morning of the day of administration, and accustomed to the measurement environment. After measuring the weight using an electronic scale balance, a lead wire and a connector socket were connected 30 minutes or more before the start of the electroencephalogram measurement, and the rat was accustomed in the measurement state under no anesthesia and no custody. The test compounds were intraperitoneally or orally administered to the rats and the electroencephalogram was measured continuously until 6 hours after the administration.\nRamelteon: solvent, 0.1 mg/kg, 1 mg/kg, and 10 mg/kg; intraperitoneal administration\nExample 1: solvent, 3 mg/kg, 30 mg/kg, and 300 mg/kg; oral administration\nExample 6: solvent, 10 mg/kg, 30 mg/kg, and 300 mg/kg; oral administration\nThe electrical signals of electroencephalogram and of electromyogram were applied to an electroencephalogram system and an electroencephalogram frequency analysis program of a personal computer was used to acquire the wave form of the electroencephalogram from the electroencephalograph system. In addition, the image signals of the electroencephalogram waveform were applied to an EEG video system and recorded on DVD-R using a DVD recorder. The behavior observation was carried out through a video camera at the same time as the electroencephalogram measurement and the images were also recorded on DVD-R using DVD recorder.\nThe presence or absence of abnormality in the electroencephalogram waveform in up to 6 hours from immediately after the administration, to each animal, respectively, was observed.\nThe analysis of a sleep-awake cycle was carried out using a sleep stage display-supporting program (MTS50061B, Japan Santec Corporation) based on the electroencephalogram waveforms acquired with an electroencephalogram frequency analysis program. Using the index of electroencephalogram, electromyogram, and behavior, the sleep steps were classified into an awake phase, a rest phase, a slow wave light sleep (S.W.L.S.) phase, a slow wave deep sleep (S.W.D.S.) phase, and a fast wave sleep (F.W.S., REM sleep) phase. Further, the rest phase, the slow wave light sleep phase, and the slow wave deep sleep phase were summed to determine a slow wave sleep (S.W.S., Non-REM sleep) phase. […] As the assessment criteria in the respective sleep steps, the criteria described in Japanese Pharmacological Journal 84, 25-89 (1984) were used."}, "SD female rats": {"test_system": "SD female rats", "assay": "Effect of test compound on urethral pressure in anesthetized rats", "assay_type": "in vivo, rat", "conditions": "dose of 0.01 mg/kg", "from_the_text": "SD female rats were anesthetized with urethane and subjected to laparotomy. Then, the bladder apex was incised and a catheter was inserted from the bladder apex. Further, the catheter tip was ligated and fixed to be located in the proximal urethra portion. The catheter was connected to a pressure transducer and an infusion pump. Further, a catheter for administrating the compound was fitted into the femoral vein. Physiological saline was continuously infused into the urethra and the perfusion pressure in the urethra was measured. After the urethral pressure was stabilized, the test compound that had been dissolved in physiological saline, or physiological saline including 5% dimethylacetamide and 0.5% Cremophor was administered intravenously at 0.01 mg/kg or 0.1 mg/kg, and a change in urethral pressures was measured.\nFurther, the results of administering an active metabolite of midodrine (ST-1059: purchased from CHEMIZON) (J. Urology, 118, 980-982 (1977)) which is an α1 adrenoceptor agonist and is confirmed to have a clinical effect on stress urinary incontinence at doses, 0.01 mg/kg and, 0.1 mg/kg in rats, presumed to correspond to the clinical doses are referenced and shown in the Tables below.\nThe increment value in the urethral pressures of ramelteon and the Example compounds of the present invention at the time of administration are shown in Table 3. Ex represents Example No. of the test compound and N.T represents Not Tested."}},
  "note": "pEC50: −log10 of the molar value.",
  "data": [
    {"compound": "CC(=O)NCCc1c[nH]c2cc(F)c(OCCOc3ccn(C)n3)cc12", "note": "[Example 6, N-[2-(6-fluoro-5-{2-[(1-methyl-1H-pyrazol-3-yl)oxy]ethoxy}-1H-indol-3-yl)ethyl]acetamide]", "values": [
      {"measurement": "pEC50", "setting": "human MT1 receptor; HEK293EBNA1 cells stably expressing human MT1 and Gq/i chimeric G protein, Ca2+ FLIPR", "value": 8.12},
      {"measurement": "Emax", "setting": "human MT1 receptor; maximum reaction by ramelteon taken as 100%", "value": 103, "unit": "%"},
      {"measurement": "Kp at 0.25 h", "setting": "[1]", "value": 0.09},
      {"measurement": "occupancy in the respective sleep steps of electroencephalogram", "setting": "rat; 10 mg/kg and 30 mg/kg", "value": "no change in the occupancy in the respective sleep steps of electroencephalogram could be seen"},
      {"measurement": "sleep action", "setting": "rat; 10 mg/kg and 30 mg/kg", "value": "there was no sleep action"},
      {"measurement": "electroencephalogram", "setting": "rat; 300 mg/kg", "value": "a variation in the electroencephalogram was observed"},
      {"measurement": "urethral pressure increasing action", "setting": "SD female rats", "value": "good urethral pressure increasing action"}
    ]}
  ]
}
